The values below come from article PMC8041284, “Tunable Methacrylamides for Covalent Ligand Directed Release Chemistry” (Journal of the American Chemical Society, 2021).

The target in the assay is BTK (Homo sapiens, UniProt Q06187). Put plainly: biochemical. The settings on record: read-out: BTK inhibition (%), 0.75 uM BTK, […] probe 3l, 15 min preincubation.

Molecules are shown by their SMILES.

BTK, sequence (Q06187 402-655 limits assumed): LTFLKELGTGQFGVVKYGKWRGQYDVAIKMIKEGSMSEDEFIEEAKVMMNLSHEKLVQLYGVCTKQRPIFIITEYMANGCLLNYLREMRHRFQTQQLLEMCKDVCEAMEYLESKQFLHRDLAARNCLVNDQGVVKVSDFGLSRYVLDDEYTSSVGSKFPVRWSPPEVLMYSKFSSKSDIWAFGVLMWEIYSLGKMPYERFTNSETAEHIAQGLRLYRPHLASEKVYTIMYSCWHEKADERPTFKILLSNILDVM

Consider `CCc1cc2c(cc1CC)CC(NC[C@H](O)c1ccc(O)c3[nH]c(=O)ccc13)C2` [PCM-0095564], for which the inhibition at 10 µM worked out at 19.5%.
For `COc1ccc(CNc2nc(N3CCC[C@H]3CO)ncc2C(=O)NCc2ncccn2)cc1Cl` [PCM-0095565], the inhibition at 10 µM was -63.8%.
The value for `O=C(O)c1cccc(-c2noc(-c3ccccc3F)n2)c1` [PCM-0095566] was -10%; that for `NC(=O)c1ccc(N(C(N)=O)c2c(F)cccc2F)nc1-c1ccc(F)cc1F` [PCM-0095567] was -32.4%.
As to `CC(C)(C)n1nc(-c2ccc(Cl)cc2)c2c(N)ncnc21` [PCM-0095568], the inhibition at 10 µM worked out at 47.6%.
Turning to `CCCCCCCCCCCC1=C(O)C(=O)C=C(O)C1=O` [PCM-0095569], the inhibition at 10 µM was found to be 42.5%.
`C[C@H](Nc1ncnc2nc[nH]c12)c1cc2cccc(Cl)c2c(=O)n1-c1ccccc1` [PCM-0095570]: the inhibition at 10 µM is 2.1%.
Consider `COC1CCN(C(=O)c2cc(Cc3n[nH]c(=O)c4ccccc34)ccc2F)CC1` [PCM-0095571], for which the inhibition at 10 µM is 10%.
Under `C=CC(=O)Nc1ccc2ncnc(Nc3cccc(Br)c3)c2c1` [PCM-0095572] stands 106%; under `C[C@H]1CCC/C=C/[C@@H]2C[C@H](O)C[C@H]2[C@H](O)/C=C/C(=O)O1` [PCM-0095573], 0.8%; under `COC[C@H](NC(=O)c1cnc(C)s1)C(=O)N[C@@H](COC)C(=O)N[C@@H](Cc1ccccc1)C(=O)[C@@]1(C)CO1` [PCM-0095574], -4.6%.
In the case of `O=S(=O)(O)Oc1ccc(C(c2ccc(OS(=O)(=O)O)cc2)c2ccccn2)cc1` [PCM-0095575], the inhibition at 10 µM is -12.5%.
Under `Cc1ccc(C(=O)c2cc(O)c(O)c([N+](=O)[O-])c2)cc1` [PCM-0095576] stands 38.1%; under `C[N+]1(C)C2CCC1CC(OC(=O)C(O)c1ccccc1)C2` (centres unmarked) [PCM-0095577], -9.3%.
The value for `CC(C)(CO)c1cc2cc(NC(=O)C3(c4ccc5c(c4)OC(F)(F)O5)CC3)c(F)cc2n1C[C@@H](O)CO` [PCM-0095580] was -27.8%.
The value for `CCOC(=O)CCNc1cc(N2CCc3ccccc3CC2)nc(-c2ccccn2)n1` [PCM-0095581] was -0.8%; that for `CC(C)[C@H]1C(=O)N[C@@H](CCCN=C(N)N)C(=O)NCC(=O)N[C@@H](CC(=O)O)C(=O)N[C@H](Cc2ccccc2)C(=O)N1C` [PCM-0095583] was -6.9%; that for `COc1ccc(CCC(=O)Nc2nc3ccc(Cl)cc3s2)cc1OC` [PCM-0095584] was -0.8%.
With `Cc1ccc2c(c1)C(=O)[C@]1(O)CCN(c3ccccc3)C1=N2` [PCM-0095585], the inhibition at 10 µM is -6.9%.
Under `CC(=O)Nc1nc2c(Oc3cc(-c4ccc(C(F)(F)F)cc4)ncn3)cccc2s1` [PCM-0095587] stands 10.8%; under `CCN1CC(CCN2CCOCC2)C(c2ccccc2)(c2ccccc2)C1=O` (centres unmarked) [PCM-0095590], 8.6%; under `CC(=O)N=c1sc(S(N)(=O)=O)nn1C` [PCM-0095591], -7.8%.
The value for `CCN(CC)C(=O)[C@]1(c2ccccc2)C[C@@H]1CN` [PCM-0095594] was 0.8%; that for `O=C(CCCCCCNC(=O)c1cnc(N(c2ccccc2)c2ccccc2)nc1)NO` [PCM-0095595] was -18.5%; that for `Cc1c(Cn2c(C)nc3c(C(=O)O)cc(N4CCOCC4)cc32)cccc1C(F)(F)F` [PCM-0095596] was -22.1%.
For `COc1ccc(Cl)cc1NC(=O)Nc1cc(C)nc2ccccc12` [PCM-0095597], the inhibition at 10 µM is 9%.
`O=C1NC(=O)/C(=C/c2cccc(C(F)(F)F)c2)S1` [PCM-0095598]: the inhibition at 10 µM was 4.8%.
With `CS(=O)(=O)c1ccc(-c2cnc(N)c(C(=O)Nc3ccccc3)n2)cc1` [PCM-0095599], the inhibition at 10 µM came to 10.3%.
For `N#Cc1cc(CN2CCC(Nc3ncnc4sc(Cl)cc34)CC2)ccc1F` [PCM-0095600], the inhibition at 10 µM turned out to be 2.3%.

For orientation: inhibition means the drop in the measured response relative to a control, in per cent.
